According to patent publication US20230181614A1, “ADMINISTRATION OF CITICOLINE TO IMPROVE COGNITIVE PERFORMANCE, ATTENTIONAL PERFORMANCE, AND MOTOR FUNCTION” (KYOWA HAKKO BIO CO., LTD., priority 2014, published 2023):

How the values were obtained:
[1] = system: Healthy subjects, ages 13-18; assay: Finger Tap Test (motor speed and control); format: in vivo, human; settings: for V3-V1 Finger Tap Test Mean Dominant Hand, Mean / V3-V1 Finger Tap Test Mean Non-Dominant Hand, Mean: Visit difference score; for Finger Tap Test Mean Dominant Hand V3, Mean / Finger Tap Test Mean Non-Dominant Hand V3, Mean: Visit 3; for Finger Tap Test Mean Dominant Hand, Mean / Finger Tap Test Mean Non-Dominant Hand, Mean: 250 mg/day
Protocol: The citicoline-treated group (N=51) were administered 250 mg/day (N=24) or 500 mg/day (N=27). Three finger tap tests were administered over a period of 28 days to measure motor speed and control. Results are expressed as mean ± SD. Statistical analysis was performed using Student’s t test. The p<0.05 was considered statistically significant. Study participants were screened by telephone prior to study enrollment. Healthy subjects, ages 13-18, with no significant medical conditions and no history of co-morbid psychiatric disorder, current Axis I or II diagnosis, or previous participation in a pharmacotherapeutic trial, were selected. Use of any psychotropic medication or any previous head injury resulting in loss of consciousness for 5 or more minutes were used as exclusion criteria. While no participant met criteria for a neuropsychiatric disorder at enrollment, clinical assessments were still completed throughout the study to evaluate changes in mood state. In addition, self-reports of sleep habits, lifestyle, and exercise routines were also administered at baseline as well as at each study visit to assess changes in health habits during study participation. Following the completion of Visit 1 assessment, participants were given their 28-day supply of citicoline (250 mg or 500 mg) or placebo, which was randomly assigned. They were instructed to take one capsule a day every day for the next 28 days. Visit 2 occurred fourteen days after Visit 1. At Visit 2, the remaining study pills were counted and participant dosage calendars were checked to ensure compliance with the protocol. Additional neuropsychological measures and clinical assessments were administered during this visit. Participants returned for Visit 3 fourteen days later, on the 28th day of their study participation. The pill bottle and the dosage calendar were collected from each participant. Urine and blood were again obtained. Participants also participated in similar clinical and neuropsychological testing and clinical measures that were given during visit 1. The finger tap test is used to measure motor speed and control. It is a common assessment measure administered by neuropsychologists to detect cognitive impairment. During the finger tap test, the participant is instructed to use his/her index finger to press a lever attached to a mechanical counter as many times as s/he can within the designated time period. The participant is instructed to move only their index finger, not the entire hand. The same process is completed using the index finger of the dominant and non-dominant hand. The finger tap test was administered at each of the three visits.

[2] = system: Healthy subjects, ages 13-18; assay: Ruff 2 & 7 test (visual attention); format: in vivo, human; settings: for Ruff 2 & 7 Accuracy Difference Score V1 (Mean) / Ruff 2 & 7 Speed Difference Score V1 (Mean) / Ruff 2 & 7 Total Accuracy T Score V1 (Mean) / Ruff 2 & 7 Total Difference Score V1 (Mean) / Ruff 2 & 7 Total Speed T Score V1 (Mean): Visit 1; for Ruff 2 & 7 Accuracy Difference Score V3 (Mean) / Ruff 2 & 7 Speed Difference Score V3 (Mean) / Ruff 2 & 7 Total Accuracy T Score V3 (Mean) / Ruff 2 & 7 Total Difference Score V3 (Mean) / Ruff 2 & 7 Total Speed T Score V3 (Mean): Visit 3
Text: Study participants were screened by telephone prior to study enrollment. Healthy subjects, ages 13-18, with no significant medical conditions and no history of co-morbid psychiatric disorder, current Axis I or II diagnosis, or previous participation in a pharmacotherapeutic trial, were selected. Use of any psychotropic medication or any previous head injury resulting in loss of consciousness for 5 or more minutes were used as exclusion criteria. While no participant met criteria for a neuropsychiatric disorder at enrollment, clinical assessments were still completed throughout the study to evaluate changes in mood state. In addition, self-reports of sleep habits, lifestyle, and exercise routines were also administered at baseline as well as at each study visit to assess changes in health habits during study participation. Following the completion of Visit 1 assessment, participants were given their 28-day supply of citicoline (250 mg or 500 mg) or placebo, which was randomly assigned. They were instructed to take one capsule a day every day for the next 28 days. Visit 2 occurred fourteen days after Visit 1. At Visit 2, the remaining study pills were counted and participant dosage calendars were checked to ensure compliance with the protocol. Additional neuropsychological measures and clinical assessments were administered during this visit. Participants returned for Visit 3 fourteen days later, on the 28th day of their study participation. The pill bottle and the dosage calendar were collected from each participant. Urine and blood were again obtained. Participants also participated in similar clinical and neuropsychological testing and clinical measures that were given during visit 1. The Ruff 2 & 7 measures two aspects of visual attention: sustained attention and selective attention. There are a series of 20 trials involving visual searching in which the respondent detects and marks through all given stimuli the digits “2” and “7”. In the 10 Automatic Detection trials, the target digits are embedded among alphabetical letters that serve as distractors. In the 10 Controlled Search trials, the target digits are embedded among other numbers that serve as distractors. Correct hits and errors are counted for each trial and serve as the basis for scoring the test. Accuracy scores evaluate the number of targets identified in relation to the number of possible targets. The Ruff 2 & 7 was administered at all three visits.

[3] = 250 mg/day group, visit difference score V3-V1
[4] = 500 mg/day group, visit difference score V3-V1

For `C[N+](C)(C)CCOP(=O)(O)OP(=O)([O-])OC[C@H]1O[C@@H](n2ccc(N)nc2=O)[C@H](O)[C@@H]1O` [citicoline, Cytidine 5′-diphosphocholine], the “V3-V1 Finger Tap Test Mean Dominant Hand, Mean” value ([1]; 250 mg/day group) was 4.87, the “V3-V1 Finger Tap Test Mean Non-Dominant Hand, Mean” value ([1]; 250 mg/day group) was 2.49 and the “Finger Tap Test Mean Dominant Hand V3, Mean” value ([1]; 250 mg/day group) was 51.59. The “Finger Tap Test Mean Non-Dominant Hand V3, Mean” value ([1]; 250 mg/day group) was 47.01, the “Finger Tap Test Mean Dominant Hand, Mean” value ([1]; V1 (baseline)) was 46.72 and the “Finger Tap Test Mean Non-Dominant Hand, Mean” value ([1]; V1 (baseline)) was 44.52. The “Finger Tap Test Mean Dominant Hand, Mean” value ([1]; V3 (day 28)) was 51.59, the “Finger Tap Test Mean Non-Dominant Hand, Mean” value ([1]; V3 (day 28)) was 47.01 and the “Finger Tap Test Mean Dominant Hand V1, Mean” value ([1]; 500 mg/day group, Visit 1) was 49.44. The “Finger Tap Test Mean Non-Dominant Hand V1, Mean” value ([1]; 500 mg/day group, Visit 1) was 44.89, the “V3-V1 Finger Tap Test Mean Dominant Hand, Mean” value ([1]; 500 mg/day group) was 2.61 and the “V3-V1 Finger Tap Test Mean Non-Dominant Hand, Mean” value ([1]; 500 mg/day group) was 2.21. For the same molecule, the “Finger Tap Test Mean Dominant Hand V3, Mean” value ([1]; 500 mg/day group) was 52.05, the “Finger Tap Test Mean Non-Dominant Hand V3, Mean” value ([1]; 500 mg/day group) was 47.10 and the “Ruff 2 & 7 Accuracy Difference Score V1 (Mean)” value ([2]; 250 mg/day group) was 0.02. For the same molecule, the “Ruff 2 & 7 Speed Difference Score V1 (Mean)” value ([2]; 250 mg/day group) was 0.01, the “Ruff 2 & 7 Total Accuracy T Score V1 (Mean)” value ([2]; 250 mg/day group) was 47.41 and the “Ruff 2 & 7 Total Difference Score V1 (Mean)” value ([2]; 250 mg/day group) was 0.01. For the same molecule, the “Ruff 2 & 7 Total Speed T Score V1 (Mean)” value ([2]; 250 mg/day group) was 45.74, the “Ruff 2 & 7 Accuracy Difference Score V3 (Mean)” value ([2]; 250 mg/day group) was 0.01 and the “Ruff 2 & 7 Speed Difference Score V3 (Mean)” value ([2]; 250 mg/day group) was 0.01. The “Ruff 2 & 7 Total Accuracy T Score V3 (Mean)” value ([2]; 250 mg/day group) was 53.00, the “Ruff 2 & 7 Total Difference Score V3 (Mean)” value ([2]; 250 mg/day group) was 0.02 and the “Ruff 2 & 7 Total Speed T Score V3 (Mean)” value ([2]; 250 mg/day group) was 54.85. For the same molecule, the “Ruff 2 & 7 Speed Difference Score V3-V1 (Mean)” value [2, 3] was 0.00, the “Ruff 2 & 7 Total Accuracy T Score V3-V1 (Mean)” value [2, 3] was 5.59 and the “Ruff 2 & 7 Total Difference Score V3-V1 (Mean)” value [2, 3] was 0.00. The “Ruff 2 & 7 Total Speed T Score V3-V1 (Mean)” value [2, 3] was 9.11, the “Ruff 2 & 7 Accuracy Difference Score V1 (Mean)” value ([2]; 500 mg/day group) was 0.02 and the “Ruff 2 & 7 Speed Difference Score V1 (Mean)” value ([2]; 500 mg/day group) was 0.01. For the same molecule, the “Ruff 2 & 7 Total Accuracy T Score V1 (Mean)” value ([2]; 500 mg/day group) was 42.71, the “Ruff 2 & 7 Total Difference Score V1 (Mean)” value ([2]; 500 mg/day group) was 0.02 and the “Ruff 2 & 7 Total Speed T Score V1 (Mean)” value ([2]; 500 mg/day group) was 44.33. The “Ruff 2 & 7 Accuracy Difference Score V3 (Mean)” value ([2]; 500 mg/day group) was 0.00, the “Ruff 2 & 7 Speed Difference Score V3 (Mean)” value ([2]; 500 mg/day group) was 0.02 and the “Ruff 2 & 7 Total Accuracy T Score V3 (Mean)” value ([2]; 500 mg/day group) was 49.88. For the same molecule, the “Ruff 2 & 7 Total Difference Score V3 (Mean)” value ([2]; 500 mg/day group) was 0.02, the “Ruff 2 & 7 Total Speed T Score V3 (Mean)” value ([2]; 500 mg/day group) was 53.75 and the “Ruff 2 & 7 Accuracy Difference Score V3-V1 (Mean)” value [2, 4] was -0.02. The “Ruff 2 & 7 Speed Difference Score V3-V1 (Mean)” value [2, 4] was 0.01, the “Ruff 2 & 7 Total Accuracy T Score V3-V1 (Mean)” value [2, 4] was 7.17 and the “Ruff 2 & 7 Total Difference Score V3-V1 (Mean)” value [2, 4] was 0.01. For the same molecule, the “Ruff 2 & 7 Total Speed T Score V3-V1 (Mean)” value [2, 4] was 9.42.
